Patent publication US12030878B2 (BRISTOL-MYERS SQUIBB COMPANY, priority 2017, dated 2024)
pIC50: −log10 of the molar value.

What was measured:
Assay type in all cases: cell-based
human TLR9 = target: T1, human TLR9 (Homo sapiens, UniProt Q9NR96); experiment: TLR9 inhibition reporter assay (HEK-Blue SEAP); settings: HEK-Blue cells overexpressing human TLR9, stimulated with ODN2006 5 nM, 22 hour incubation
T1 construct: host or cells: HEK-Blue cells
T1 sequence (Q9NR96 26-1032): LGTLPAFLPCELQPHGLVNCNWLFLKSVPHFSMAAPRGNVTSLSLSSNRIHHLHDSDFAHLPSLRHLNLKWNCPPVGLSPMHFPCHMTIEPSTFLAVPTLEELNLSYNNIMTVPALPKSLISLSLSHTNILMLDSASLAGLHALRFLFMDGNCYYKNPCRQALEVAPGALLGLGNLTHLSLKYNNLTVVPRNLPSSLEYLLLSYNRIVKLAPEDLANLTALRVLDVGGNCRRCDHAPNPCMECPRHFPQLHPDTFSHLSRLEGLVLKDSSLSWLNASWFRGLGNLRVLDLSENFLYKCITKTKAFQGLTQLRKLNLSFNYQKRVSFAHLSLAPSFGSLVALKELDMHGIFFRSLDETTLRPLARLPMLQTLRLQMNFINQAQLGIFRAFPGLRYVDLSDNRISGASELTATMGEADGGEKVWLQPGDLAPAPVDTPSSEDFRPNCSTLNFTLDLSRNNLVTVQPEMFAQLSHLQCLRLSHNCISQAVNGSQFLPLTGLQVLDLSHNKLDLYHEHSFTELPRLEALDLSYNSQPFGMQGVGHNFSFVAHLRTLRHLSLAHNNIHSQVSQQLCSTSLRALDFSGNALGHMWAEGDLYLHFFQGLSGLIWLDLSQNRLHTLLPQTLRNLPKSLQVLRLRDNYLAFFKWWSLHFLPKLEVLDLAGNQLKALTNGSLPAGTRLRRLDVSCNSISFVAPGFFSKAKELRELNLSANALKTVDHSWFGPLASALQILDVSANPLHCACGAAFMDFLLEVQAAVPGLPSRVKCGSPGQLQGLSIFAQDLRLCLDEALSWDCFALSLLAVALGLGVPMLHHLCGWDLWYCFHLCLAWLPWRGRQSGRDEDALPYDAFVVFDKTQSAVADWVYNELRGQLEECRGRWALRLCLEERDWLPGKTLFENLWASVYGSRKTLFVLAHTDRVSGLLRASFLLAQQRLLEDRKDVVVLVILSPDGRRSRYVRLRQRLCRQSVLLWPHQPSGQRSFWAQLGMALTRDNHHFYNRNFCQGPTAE
In short: (§1)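 HEK-Blue cells with NF-κB/AP-1-driven SEAP reporter; compounds 0.05 nM-50 μM, 30 min pre-treatment at room temperature, then agonist: gardiquimod 7.5 μM (TLR7), R848 15.9 μM (TLR8) or ODN2006 5 nM (TLR9). SEAP read after 22 h at 37 °C; percent inhibition versus agonist-plus-DMSO and reference-inhibitor wells.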

human TLR7 = target: T2, human TLR7 (Homo sapiens, UniProt Q9NYK1); experiment: TLR7 inhibition reporter assay (HEK-Blue SEAP); settings: HEK-Blue cells overexpressing human TLR7, stimulated with gardiquimod 7.5 μM, 22 hour incubation
T2 construct: host or cells: HEK-Blue cells
T2 sequence (Q9NYK1 27-1049): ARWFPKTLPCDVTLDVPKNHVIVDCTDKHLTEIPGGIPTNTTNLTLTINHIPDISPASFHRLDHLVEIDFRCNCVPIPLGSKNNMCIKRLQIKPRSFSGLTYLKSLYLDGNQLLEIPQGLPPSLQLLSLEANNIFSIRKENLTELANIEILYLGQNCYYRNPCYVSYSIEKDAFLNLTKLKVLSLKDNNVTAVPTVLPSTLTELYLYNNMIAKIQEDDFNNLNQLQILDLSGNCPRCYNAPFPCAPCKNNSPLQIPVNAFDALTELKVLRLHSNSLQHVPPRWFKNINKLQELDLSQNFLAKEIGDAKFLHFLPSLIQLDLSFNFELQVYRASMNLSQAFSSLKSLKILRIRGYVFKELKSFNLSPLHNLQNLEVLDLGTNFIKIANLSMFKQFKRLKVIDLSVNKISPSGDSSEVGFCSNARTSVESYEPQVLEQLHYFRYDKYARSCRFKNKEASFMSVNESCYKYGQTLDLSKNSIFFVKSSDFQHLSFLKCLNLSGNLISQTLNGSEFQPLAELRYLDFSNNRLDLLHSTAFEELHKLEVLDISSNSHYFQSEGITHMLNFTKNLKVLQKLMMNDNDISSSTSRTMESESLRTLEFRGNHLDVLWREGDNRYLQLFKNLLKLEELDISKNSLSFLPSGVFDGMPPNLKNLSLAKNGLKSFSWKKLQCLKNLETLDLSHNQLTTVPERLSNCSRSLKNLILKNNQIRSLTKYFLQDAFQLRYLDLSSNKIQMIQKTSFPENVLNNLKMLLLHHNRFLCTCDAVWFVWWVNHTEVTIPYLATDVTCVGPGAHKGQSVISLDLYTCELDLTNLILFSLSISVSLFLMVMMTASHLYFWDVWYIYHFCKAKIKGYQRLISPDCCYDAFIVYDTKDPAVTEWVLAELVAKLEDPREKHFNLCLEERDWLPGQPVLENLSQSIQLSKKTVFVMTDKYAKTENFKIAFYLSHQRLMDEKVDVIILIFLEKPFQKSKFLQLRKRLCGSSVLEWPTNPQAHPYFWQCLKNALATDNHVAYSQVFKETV
In short: as §1

human TLR8 = target: T3, human TLR8 (Homo sapiens, UniProt Q9NR97); experiment: TLR8 inhibition reporter assay (HEK-Blue SEAP); settings: HEK-Blue cells overexpressing human TLR8, stimulated with R848 15.9 μM, 22 hour incubation
T3 construct: host or cells: HEK-Blue cells
T3 sequence (Q9NR97 27-1041): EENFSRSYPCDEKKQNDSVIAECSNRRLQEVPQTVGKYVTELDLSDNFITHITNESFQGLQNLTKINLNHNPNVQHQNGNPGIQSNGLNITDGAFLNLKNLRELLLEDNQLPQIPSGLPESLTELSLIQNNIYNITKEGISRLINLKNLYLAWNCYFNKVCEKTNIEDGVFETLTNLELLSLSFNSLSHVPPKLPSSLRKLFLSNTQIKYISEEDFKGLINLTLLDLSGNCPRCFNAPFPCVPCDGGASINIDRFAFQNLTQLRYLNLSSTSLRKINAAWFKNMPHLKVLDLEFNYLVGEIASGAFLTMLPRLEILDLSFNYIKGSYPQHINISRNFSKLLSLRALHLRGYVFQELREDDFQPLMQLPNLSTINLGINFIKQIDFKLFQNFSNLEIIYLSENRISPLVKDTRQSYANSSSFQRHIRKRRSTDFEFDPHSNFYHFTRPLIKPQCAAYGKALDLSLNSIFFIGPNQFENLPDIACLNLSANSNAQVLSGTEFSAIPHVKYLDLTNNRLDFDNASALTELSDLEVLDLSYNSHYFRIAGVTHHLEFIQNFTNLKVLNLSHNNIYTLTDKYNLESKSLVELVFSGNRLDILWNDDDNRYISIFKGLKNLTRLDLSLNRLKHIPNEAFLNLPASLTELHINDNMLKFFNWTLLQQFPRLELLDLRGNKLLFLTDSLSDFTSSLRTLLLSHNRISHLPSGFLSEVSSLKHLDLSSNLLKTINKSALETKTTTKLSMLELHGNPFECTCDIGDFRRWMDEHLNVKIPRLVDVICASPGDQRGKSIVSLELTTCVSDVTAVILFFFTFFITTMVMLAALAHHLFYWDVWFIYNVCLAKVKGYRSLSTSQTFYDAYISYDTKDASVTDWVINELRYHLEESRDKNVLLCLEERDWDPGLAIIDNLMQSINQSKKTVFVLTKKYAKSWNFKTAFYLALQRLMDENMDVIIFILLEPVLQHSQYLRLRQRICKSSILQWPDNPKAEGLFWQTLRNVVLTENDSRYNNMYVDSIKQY
In short: as §1

| Compound | pIC50 (human TLR9) | pIC50 (human TLR7) | pIC50 (human TLR8) |
| --- | --- | --- | --- |
| Cc1cc(-c2[nH]c3ccc(OC4CCN(C(=O)CN(C)C)CC4)cc3c2C(C)C)cc(C)n1 [Example 95, 2-(dimethylamino)-1-(4-((2-(2,6-dimethylpyridin-4-yl)-3-isopropyl-1H-indol-5-yl)oxy)piperidin-1-yl)ethanone] | 6.38 | 9.30 | 7.98 |
| CNC(=O)CN1CCC(COc2ccc3[nH]c(-c4cc(C)nc(C)c4)c(C(C)C)c3c2)CC1 [Example 110, 2-(4-(((2-(2,6-dimethylpyridin-4-yl)-3-isopropyl-1H-indol-5-yl)oxy)methyl)piperidin-1-yl)-N-methylacetamide] | 6.31 | 8.02 | 8.14 |
| Cc1cc(-c2[nH]c3ccc(O[C@@H]4CCN(C)C4)cc3c2C(C)C)ccn1 [Example 193, (R)-3-isopropyl-2-(2-methylpyridin-4-yl)-5-((1-methylpyrrolidin-3-yl)oxy)-1H-indole] | 6.05 | 7.82 | 8.19 |
| Cc1cc(-c2[nH]c3ccc(OCC4CCN(C(C)C)CC4)cc3c2C(C)C)cn2ncnc12 [Example 42, 6-(3-isopropyl-5-((1-isopropylpiperidin-4-yl)methoxy)-1H-indol-2-yl)-8-methyl-[1,2,4]triazolo[1,5-a]pyridine] | 6.46 | 9.70 | 9.40 |
| Cc1cc(-c2[nH]c3ccc(OCC4CCN(CC(C)(C)O)CC4)cc3c2C(C)C)cn(C)c1=O [Example 25, 5-(5-((1-(2-hydroxy-2-methylpropyl)piperidin-4-yl)methoxy)-3-isopropyl-1H-indol-2-yl)-1,3-dimethylpyridin-2(1H)-one] | 4.94 | 6.94 | 7.85 |
| Cc1cc(-c2[nH]c3ccc(OC4CCN(C(C)C)CC4)cc3c2C(C)C)cn2ncnc12 [Example 47, 6-(3-isopropyl-5-((1-isopropylpiperidin-4-yl)oxy)-1H-indol-2-yl)-8-methyl-[1,2,4]triazolo[1,5-a]pyridine] | 5.61 | 9.10 | 9.00 |
| Cc1cc(-c2[nH]c3ccc(OCC4CCN(CCO)CC4)cc3c2C(C)C)cc(C)n1 [Example 71, 2-(4-(((2-(2,6-dimethylpyridin-4-yl)-3-isopropyl-H-indol-5-yl)oxy)methyl)piperidin-1-yl)ethan-1-ol] | 6.44 | 8.42 | 8.60 |
| COc1ccc(-c2[nH]c3ccc(OCC(=O)N4CCC[C@]5(CCCC[C@@H]5N)C4)cc3c2C(C)C)cc1OC [Example 123, 1-((6R,7S)-7-amino-2-azaspiro[5.5]undecan-2-yl)-2-((2-(3,4-dimethoxyphenyl)-3-isopropyl-1H-indol-5-yl)oxy)ethan-1-one] | 5.64 | 6.79 | 6.64 |
| Cc1cc(-c2[nH]c3ccc(OCC4CCCNC4)cc3c2C(C)C)ccn1 (stereo not drawn) [Example 180, 3-isopropyl-2-(2-methylpyridin-4-yl)-5-(piperidin-3-ylmethoxy)-1H-indole] | 5.74 | 7.42 | 8.46 |
| Cc1cc(-c2[nH]c3ccc(OC4CCN(C(=O)CN(C)C)CC4)cc3c2C(C)C)cn2ncnc12 [Example 101, 2-(dimethylamino)-1-(4-((3-isopropyl-2-(8-methyl-[1,2,4]triazolo[1,5-a]pyridin-6-yl)-1H-indol-5-yl)oxy)piperidin-1-yl)ethan-1-one] | 5.01 | 8.64 | 7.44 |
| Cc1cc(-c2[nH]c3ccc(OCCN(C)C)cc3c2C(C)C)ccn1 [Example 167, 2-((3-isopropyl-2-(2-methylpyridin-4-yl)-1H-indol-5-yl)oxy)-N,N-dimethylethan-1-amine] | 5.72 | 7.16 | 8.51 |
| COc1ccc(-c2[nH]c3ccc(OC4CCNCC4)cc3c2C(C)C)cc1OC [Example 171, 2-(3,4-dimethoxyphenyl)-3-isopropyl-5-(piperidin-4-yloxy)-1H-indole] | 6.03 | 6.78 | 7.82 |
| Cc1cc(-c2[nH]c3ccc(OCC4CCN(C(C)C)CC4)cc3c2C(C)C)ccn1 [Example 191, 3-isopropyl-5-((1-isopropylpiperidin-4-yl)methoxy)-2-(2-methylpyridin-4-yl)-1H-indole] | 5.55 | 7.07 | 8.24 |
| Cc1cc(-c2[nH]c3ccc(OC4CCN(CC(C)(C)O)CC4)cc3c2C(C)C)cc(C)n1 [Example 21, 1-(4-((2-(2,6-dimethylpyridin-4-yl)-3-isopropyl-1H-indol-5-yl)oxy)piperidin-1-yl)-2-methylpropan-2-ol] | 6.29 | 8.44 | 8.96 |
| CCc1c(-c2ccnc(C)c2)[nH]c2ccc(OCC3CCNCC3)cc12 [Example 161, 3-ethyl-2-(2-methylpyridin-4-yl)-5-(piperidin-4-ylmethoxy)-1H-indole] | 6.66 | 7.66 | 8.38 |
